Assay results from patent US8092790B2, “Methods of making formulations to affect insect behavior and/or bird behavior” (Bug Buster, Ltd., priority 2003, dated 2012).
Several values for one entry are separate records, joined by “and”; a condition that tells them apart may be missing. Identical values can stand only once.

Legend:
[1] = system: corn ear worm (Heliothus zea); experiment: Crop field trials with lambda cyalothrin insecticide, corn ear worm larvae; assay type: in vivo
From the text: An exemplary compound, methyl anthranilate, was combined with fatty acid and applied to crop fields (again, this formulation will also repel at least some birds), contemporaneously, an insecticide having a pyrethrin, lambda cyalothrin, as an active ingredient was applied to crop fields (e.g., WARRIOR™).
In another trial, an insecticide that included a pyrethrin, lambda cyalothrin, was applied to crop fields (e.g., WARRIOR™). […] Later, an exemplary compound, methyl anthranilate, combined with a fatty acid, was applied to the same crop field. […] An exemplary composition included an exemplary compound, methyl anthranilate, fatty acid and an insecticide that included a pyrethrin, lambda cyalothrin, as an active ingredient (e.g., WARRIOR™). The exemplary composition was applied to crop fields.

birds [2] = experiment: Container placed in aircraft hanger; assay type: in vivo; conditions: 2.5 gallon HDPE container at least partially filled
[3] = system: banded sunflower moth (Cochylis hospes), sunflower seed head larvae; experiment: Sunflower field application, seed head larvae; assay type: in vivo; conditions: BIRDSHIELD at 0.006%, approx. two weeks after ASANA; within a minute of application
From the text: An insecticide such as ASANA™ (active ingredient esfenvalerate) is suitable for use in controlling banded sunflower moth (Cochylis hospes). An exemplary composition that included an exemplary compound, methyl anthranilate (e.g., BIRDSHIELD™), was applied to sunflowers.
(§1) An insecticide, ASANA™, was applied to sunflowers. Approximately two weeks later, an exemplary compound, methyl anthranilate (e.g., BIRDSHIELD™ at 0.006%) was applied to the same sunflowers. […] This behavior caused the larvae to fall off of the flower portions of the sunflowers. In addition, the exemplary compound affected behavior of other insects on the treated sunflowers.

Aenictus = conditions: in vivo; cited from earlier work
Camponotus spp. = conditions: in vivo; cited from earlier work
birds [4] = conditions: in vivo; cited from earlier work
mites and spiders = experiment: Sunflower field application, other insects on treated sunflowers; assay type: in vivo; conditions: BIRDSHIELD at 0.006%, approx. two weeks after ASANA
From the text: as §1

Ceranisus menes = conditions: in vivo; cited from earlier work
[5] = system: Thaumatomyia glabra (Meigen) flies; conditions: in vivo; cited from earlier work
[6] = system: fruit flies (Drosophila spp.); experiment: Attraction of fruit flies, sticky trap with treated surface; assay type: in vivo
From the text: An exemplary compound, methyl anthranilate, was combined with fatty acid and used to attract insects, in particular, fruit flies (Drosophila spp.). This exemplary compound will also repel at least some birds. […] An exemplary compound, methyl anthranilate, was combined with fatty acid and applied to a surface (e.g., a treated surface) of a sticky trap and used to attract and to trap insects, in particular, fruit flies (Drosophilia spp.). This exemplary compound will also repel at least some birds.
A trial compared insect attraction for an untreated surface of a sticky trap and with a treated surface of a sticky trap.
For example, grape crushing and/or fermenting may release competitive agents.

[7] = system: house flies (Drosophila melanogater); experiment: Three-section Petri dish choice test; assay type: in vivo
From the text: Colonies of house flies (Drosophila melanogater) were selected for subsequent placement in covered Petri dishes wherein each Petri dish was divided into three sections. One of the sections, a center section, was used as a control. An exemplary compound, methyl anthranilate (e.g., BIRDSHIELD™ at 0.006%) was applied to a piece of filter paper and placed in a first section while an […] (e.g., deionized water), was applied to another piece of filter paper and placed in second section. Flies were then released into the center control section and lids were placed on the Petri dishes.
More specifically, 100 captive flies were used and the sections were approximately equal in size, e.g., 33% of total space per section. Flies were released into the neutral zone of each Petri dish and monitored after 15 minutes and one hour.

[8] = system: sunflower seed weevils (Smicronyx spp.); experiment: Comparison to DEET product, drawing weevils out of sunflower heads; assay type: in vivo
From the text: DEET is often used by entomologists in standard procedures to draw sunflower seed weevils (Smicronyx spp.) out of the heads of sunflowers. In this trial, DEET was provided in the commercially available product DEEP WOODS OFF™ repellent (S.C. Johnson and Son's, Racine, Wis.), which has approximately 28.5% active ingredient; 1.5% other isomers and 70% inert ingredients. Forty-two flowers were randomly selected from interiors of three fields. One-half of the flowers were sprayed with the DEET containing repellent while the remaining flowers were sprayed with the exemplary compound at a concentration of approximately 0.00312% methyl anthranilate, which was combined with long chained fatty acids. The number of sunflower weevils was recorded.

[9] = system: larvae in a laboratory growing medium; experiment: Application to larvae in laboratory growing medium; assay type: in vivo; conditions: control group remained in growing medium
From the text: Trials involved applying an exemplary compound to larvae in a laboratory growing medium.
An exemplary compound, methyl anthranilate (e.g., BIRDSHIELD™) was applied to insects that were first allowed to adapt to a laboratory environment. A control group of insects were not exposed to the exemplary compound.

## COC(=O)c1ccccc1N [methyl anthranilate]
[1]; combined with a fatty acid, applied later to field already treated with lambda cyalothrin, within a day
  corn ear worm larvae on the ground: littered the ground
[1]; combined with fatty acid, applied contemporaneously with lambda cyalothrin insecticide (WARRIOR), within a day of treatment
  corn ear worm larvae on the ground: littered the ground
Birds [2]
  bird population in hanger: bird population dwindled
  surface guano on aircraft: significant drop in surface guano
[3]
  appearance of sunflower seed head larvae: began to appear on the surface of the sunflowers
Aenictus
  semiochemical function for Aenictus: trail semiochemicals
Camponotus spp.
  effect on Camponotus spp.: trigger flight of sexuals from nest
Birds [4]
  repellency to birds: exhibit repellency to birds
Mites and spiders
  behavior of mites and spiders on treated sunflowers: observed to appear from spaces between maturing seeds and to subsequently fall off the flower portion of the sunflowers
Ceranisus menes
  attraction of Ceranisus menes: are attracted
[5]
  attraction of Thaumatomyia glabra flies: attractive
[6]; combined with fatty acid
  attraction of fruit flies: attracted fruit flies
[6]; grape crushing and/or fermenting may release competitive agents
  effectiveness in a competitive environment: may be diminished in a competitive environment
[6]; in less than one minute, only a few insects on untreated surface
  insects on treated surface of sticky trap: covered with insects
[7]; 0.006% on filter paper, within one hour
  fly response to treated section: avoided the section treated with the exemplary compound
[7]; approximately 0.00025%
  fly response to treated areas: relatively neutral
[7]; approximately 0.0025%
  fly response to treated areas: somewhat neutral
[7]; approximately 0.025%
  fly response to treated areas: avoided the treated areas
[7]; approximately 0.25%, 100 flies, monitored after 15 minutes and one hour
  fly response to treated areas: avoided the treated areas
[8]; Field No. 1
  Number of insects, Mean: 6.8
  Number of insects, Total: 68
[8]; Field No. 2
  Number of insects, Mean: 24
  Number of insects, Total: 72
[8]; Field No. 2, per flower, DEET as DEEP WOODS OFF, methyl anthranilate approx. 0.00312% with long chained fatty acids
  Number of insects: 23 and 24 and 26
[8]; Field No. 3
  Number of insects, Mean: 8.4
  Number of insects, Total: 67
[8]; approx. 0.00312% methyl anthranilate with long chained fatty acids vs DEET repellent product
  effectiveness compared with DEET: generally more effective than DEET
[9]
  behavior of exposed insects: emerged quickly from the laboratory growing medium
